Data reported in US12325692B2, “Uses of doxadiazines compounds” (HORITZONTS TECNOLOGICS HUNGARY KORLÁTOLT FELELOSSÉGU …, priority 2019, dated 2025).
pIC50: −log10 of the molar value.

Assays:
[1] = Total antioxidant activity assay (DPPH free radical, cell-free); assay type: biochemical; conditions: Trolox 200 μM as positive control
Description: FIG. 2. Antioxidant activity of compound. The percentage of antioxidant activity of each extract was assessed by DPPH free radical assay and compared to the standard Trolox (92.08% of antioxidant activity).
Total antioxidant activity assay. […] DPPH (1,1-Diphenyl-2-picrylhydrazine) is a purple coloured stable free radical that is reduced to the yellow-coloured diphenylpicrylhydrazine. In a volume of 1 mL of methanol the test samples are mixed with DPPH 0.125 mM. Trolox (200 μM) is included as a positive control. After 30 min of incubation at room temperature in the dark the absorbance measurements are read at 517 nm using Thermo Scientific Genesys 10 uv scanning spectrophotometer. Lower absorbance of the reaction mixtures indicated higher free radical-scavenging activity. DPPH radical-scavenging activity is calculated according to the following formula: % Antioxidant activity=[(AC−AS)/AC]×100
Where Ac (control) is the absorbance of the control reaction (DPPH) and As (sample) is the absorbance of DPPH and sample.

NIH/3T3 cells = assay: Cellular antioxidant activity assay (TBHP-induced ROS, DCFH-DA) in NIH/3T3 cells; assay type: cell-based; conditions: Mus musculus, NIH3T3, NIH/3T3 cell, read-out: antioxidant activity IC50 (TBHP-induced intracellular ROS)
Description: (§1) FIG. 3. Inhibition of TBHP-induced ROS production in THP-1 and NIH-3T3 cells. ROS production was evaluated by fluorescent probe DCFH-DA assay.
(§2) Cellular antioxidant activity assays. The intracellular accumulation of ROS is detected by fluorimetry using […] (DCFH-DA). The THP-1 cell (1×10^5 cells/well) are cultured in a 96-well black plate in DMEM supplemented with 10% FBS; culture medium is renewed when the cells reached 80% confluence. For inhibition, the cells are pre-incubated with the test substances for 30 min and treated with 0.4 mM Terc-butyl-hydroperoxide (TBHP). After 3 h the cells are incubated with 10 μM DCFH-DA in the culture medium at 37° C. for 30 min.
(§3) The acetate groups on DCFH-DA are removed by an intracellular esterase, trapping the probe inside the THP-1 cell. Then, the cells are washed with PBS at 37° C. and the production of ROS measured by changes in fluorescence due to the intracellular accumulation of DCF caused by the oxidation of DCFH. Intracellular ROS, as indicated by DCF fluorescence is detected using the Incucyte FLR software; the data are analyzed by the total green object integrated intensity (GCU×μm^2×well) of the imaging system IncuCyte HD (Essen BioScience).
(§4) In both cases the intracellular levels of ROS induced by TBHP are reduced (FIG. 3).

NF-ηB [2] = assay: NF-ηB activity assay (KBF-Luc luciferase reporter) in NIH/3T3 cells; assay type: cell-based; conditions: Mus musculus, NIH3T3; NIH/3T3 cell; read-out: inhibition of NF-ηB production IC50
Description: (§5) FIG. 5. Inhibition of NF-ηB production in THP-1 and NIH/3T3 cells.
(§6) NF-ηB activity assays. The NIH/3T3-KBF-Luc cells has been stably transfected with the plasmid KBF-Luc plasmid, which contains three copies of NF-ηB binding site (from major histocompatibility complex promoter), fused to a minimal simian virus 40 promoter driving the luciferase gene. Cells (1×10^4 for NIH/3T3-KBF-Luc) are seeded the day before the assay on 96-well plate. Then the cells are treated with the test substances for 15 min and then stimulated with 30 ng/mL TNF-α. After 6 h, the cells are washed twice with PBS and lysed in 50 μL lysis buffer containing 25 mM Tris-phosphate (pH 7.8), 8 mM MgCl2, 1 mM DTT, 1% Triton X-100, and 7% glycerol during 15 min at RT in a horizontal shaker. Luciferase activity is measured using a GloMax 96 microplate luminometer (Promega) following the instructions of the luciferase assay kit (Promega, Madison, WI, USA). The RLU is calculated and the results are expressed as percentage of inhibition of NF-ηB activity induced by TNF-α (100% activation). The experiments for each concentration of the test items will be done in triplicate wells.

HIF-1α = HIF-1α activity assay (NIH/3T3-EPO-Luc luciferase reporter, DFX-induced); assay type: cell-based; conditions: 6 h, read-out: inhibition of DFX-induced activation of EPO-Luc (HIF-1α stabilization) IC50
Description: FIG. 7. Inhibitions the HIF-1α pathway. NIH/3T3-EPO-Luc cells (10×10^4 cells/mL) were preincubated with increasing concentrations of the compound or the hypoximimetic (Desferrioxamine) DFX for 6 h. Luciferase activity was measured in the cell lysates and results are represented as the percentage of inhibition considering 100% the value of DFX-induced HIF-1α pathway activation.
HIF-1α activity assay. The NIH/3T3-EPO-luc cells have been stably transfected with the plasmid Epo-Luc plasmid. The EPO-Hypoxia Response Element (HRE)-luciferase reporter plasmid contains three copies of the HRE consensus sequence from the promoter of the erythropoietin gene in the pGL3 vector. Cells (1×10^4 for NIH/3T3-EPO-luc) are seeded the day before the assay. The next day, the cells are stimulated either with the compound or Desferrioxamine (DFX) 150 μM as a positive control. After 6 hours of stimulation the cells are lysed in 25 mM Tris-phosphate pH 7.8, 8 mM MgCl2, 1 mM DTT, 1% Triton X-100, and 7% glycerol during 15 min at RT in a horizontal shaker. Luciferase activity is measured using a GloMax 96 microplate luminometer (Promega) following the instructions of the luciferase assay kit (Promega, Madison, WI, USA). The RLU is calculated and the results are expressed as percentage of inhibition induction/inhibition of EPO-luc activity. […]

TNF-α [3] = assay: TNF-α activity assay (ELISA) in NIH/3T3 cells; assay type: cell-based; conditions: NIH/3T3 cell; read-out: inhibition of TNF-α production IC50
Description: (§7) FIG. 4. Inhibition of TNF-α production in THP-1 and NIH/3T3 cells.
(§8) TNF-α activity assays. The protein expression levels of TNF-α were measured by using an enzyme-linked immunosorbent assay (ELISA) kit according to the manufacturer's instructions (Diaclone). Absorbance was read at 450 nm on a spectrophotometric ELISA plate reader (Anthos 2020, Version 2.0.5, Biochrom Ltd., UK). The percentage of TNF-α inhibition was calculated from the ratio between the observed TNF-α amount secreted by treated cells (nM) and the baseline secretion of TNF-α (nM). Dexamethasone (Sigma-Aldrich; 50-02-2), was used as positive control (0.01 μM). Results were normalized to the solvent control DMSO (0.1%).

tyrosinase = target: T1, tyrosinase (Mus musculus, UniProt P11344); assay: Tyrosinase activity assay in B16-F10 melanoma cells; assay type: cell-based; conditions: 72 h treatment, read-out: inhibition of melanin synthesis (tyrosinase activity assay) IC50
T1 construct: To measure the tyrosinase activity of the cells, the B16-F10 cells treated for 3 days; endogenous in cells; host or cells: B16-F10 melanoma cells
T1 sequence (P11344 19-533): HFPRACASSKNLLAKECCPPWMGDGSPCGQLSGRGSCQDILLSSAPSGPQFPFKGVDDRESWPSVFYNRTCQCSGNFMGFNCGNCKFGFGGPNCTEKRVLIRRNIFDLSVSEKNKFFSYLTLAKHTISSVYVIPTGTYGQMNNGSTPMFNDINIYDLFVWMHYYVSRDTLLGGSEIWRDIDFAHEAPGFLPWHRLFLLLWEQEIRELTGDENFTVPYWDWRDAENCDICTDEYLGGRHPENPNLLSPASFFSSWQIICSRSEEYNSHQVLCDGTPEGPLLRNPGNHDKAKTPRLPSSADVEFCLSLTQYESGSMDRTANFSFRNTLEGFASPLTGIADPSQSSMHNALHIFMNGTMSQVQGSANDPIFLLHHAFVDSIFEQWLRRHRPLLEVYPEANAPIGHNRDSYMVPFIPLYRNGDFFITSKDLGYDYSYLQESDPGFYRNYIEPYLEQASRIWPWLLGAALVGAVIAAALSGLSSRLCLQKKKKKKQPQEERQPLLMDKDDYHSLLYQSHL
Description: FIG. 8. Effect of DOXA-1 and DOXA-2 on tyrosinase activity in B16-F10 melanoma cells. Tyrosinase activity assessment was performed as described in Methods. Briefly, cells were treated with the doses indicated of test substances or Kojic Acid as a positive control for 72 h. To determine the tyrosinase activity cells were lysed and the protein extracts were incubated with L-DOPA (a precursor of melanin) at 37° C. during 2 h and the activity was measured at 485 nm. Results are represented as percentage relative to untreated cells (control).
Tyrosinase activity assay. To measure the tyrosinase activity of the cells, the B16-F10 cells treated for 3 days with several doses of the compound is lysed by incubation at 4° C. for 30 min in lysis buffer (20 mM sodium phosphate, pH 6.8, 1% Triton X-100, 1 mM PMSF, 1 mM EDTA) containing protease inhibitors cocktail. The lysates are centrifuged at 15,000× g for 10 min to obtain the supernatant as the source of tyrosinase. The reaction mixture contained 20 mM phosphate buffer, pH 6.8, 1.25 mM L-DOPA (Sigma-Aldrich). After incubation at 37° C. for 2 h, dopachrome formation is monitored by measuring absorbance at a wavelength of 475 nm in a microplatereader (TECAN). Kojic acid 2 mM is used as a positive control.

NF-ηB [4] = assay: NF-ηB activity assay in THP-1 cells; assay type: cell-based; conditions: Homo sapiens; THP-1 cell; read-out: inhibition of NF-ηB production IC50
Description: as §5, §6

THP-1 cells [5] = assay: Cellular antioxidant activity assay (TBHP-induced ROS, DCFH-DA) in THP-1 cells; assay type: cell-based; conditions: Homo sapiens, THP-1 cell, 0.4 mM TBHP, read-out: antioxidant activity IC50 (TBHP-induced intracellular ROS)
Description: as §1, §2, §3, §4

STAT3 = STAT3 activity assay (HeLa-STAT3-Luc luciferase reporter, IFNγ-induced); assay type: cell-based; conditions: HeLa-STAT3-Luc cells, IFNγ 25 U/mL, 6 h; read-out: inhibition of IFNγ-induced STAT3 activation IC50
Description: FIG. 6. DOXA-1 and DOXA-2 inhibits IFNγ-induced STAT3 activation. HeLa-STAT3-Luc cells (15×10^3 cells/mL) were preincubated with increasing concentrations of the compound and treated with IFNγ (25 U/mL) for 6 h. Luciferase activity was measured in the cell lysates with the luciferase assay kit (Promega, USA) and using a GloMax 96 microplate luminometer
STAT3 activity assay. The HeLa-STAT3-luc cells have been stably transfected with the plasmid 4×M67 pTATA TK-Luc. Cells (15×10^3 cells/mL) are seeded 96-well plate the day before the assay. Then the cells are treated with the compound for 15 min and then stimulated with IFN-γ 25 IU/mL. After 6 h, the cells are washed twice with PBS and lysed in 50 μL lysis buffer containing 25 mM Tris-phosphate (pH 7.8), 8 mM MgCl2, 1 mM DTT, 1% Triton X-100, and 7% glycerol during 15 min at RT in a horizontal shaker. Luciferase activity was measured using GloMax 96 microplate luminometer (Promega) following the instructions of the luciferase assay kit (Promega, Madison, WI, USA). The RLU is calculated and the results are expressed as percentage of inhibition of STAT3 activity induced by IFN-γ (100% activation). The experiments for each concentration of the test items will be done in triplicate wells.

TNF-α [6] = assay: TNF-α activity assay (ELISA) in THP-1 cells; assay type: cell-based; conditions: THP-1 cell; read-out: inhibition of TNF-α production IC50
Description: as §7, §8

THP-1 cells [7] = assay: Cytotoxic activity assay in THP-1 cells; assay type: cell-based; conditions: 48 h, at the tested concentrations
Description: FIG. 1. Cytotoxic activities of the compound in THP-1 cells. The cells were treated with the test substance at the indicated concentrations for 48 h.
Cytotoxic activity assays. THP-1 cell was seeded in 96-well plates at a density of 5×10^4 cells/well and NIH/3T3 cells were seeded in 96-well plates at a density of 5×10^3 cells/well both incubated overnight at 37° C. in a humidified atmosphere of 5% CO2. Subsequently, cells were treated with test compounds at the indicated concentrations and DMSO as control for […]. The test compounds were dissolved in DMSO (stock solution) and diluted with medium to a final DMSO concentration of 0.2%. MTT solution (50 μL, 7 mg/mL in PBS) was added to each well and plates were incubated for an additional 2 h. Next, the medium was removed and 100 μL of DMSO was added to each well to dissolve the formazan crystals that formed. The absorbance was measured at 590 nm using a spectrophotometric ELISA plate reader (SpectraMax® i3, Molecular Devices, CA, USA). Samples were considered nontoxic for the THP-1 and NIH/3T3 cell line when cell viability was ≥90%.
To analyse the cytotoxic activities of the test compound, THP-1 cells were incubated with DOXA-1 and DOXA-2 for 48 h and cytotoxicity was measured by fluorescence microscopy using an Incuyte microscope.

SMILES	percentage of antioxidant activity (DPPH), standard [1] [%]	pIC50 (NIH/3T3 cells)	pIC50 (NF-ηB [2])	pIC50 (HIF-1α)	pIC50 (TNF-α [3])	pIC50 (tyrosinase)	pIC50 (NF-ηB [4])	pIC50 (THP-1 cells [5])	pIC50 (STAT3)	pIC50 (TNF-α [6])	cytotoxicity against THP-1 cell (THP-1 cells [7])
Cc1c(C)c2c(c(C)c1O)CCC(C)(C(=O)O)O2 (stereo not drawn) [Trolox, reference compound]	92.08	–	–	–	–	–	–	–	–	–	–
CCCCCC1=NN(C(=O)CCOC(C)=O)OC(CCCCC)C1 (stereo not drawn) [DOXA-2, Doxadiazine-2]	–	8.65	8.62	8.29	8.80	8.06	8.29	8.46	9.86	8.46	no cytotoxicity
CCCCCC1=NN(C(=O)CCOC(=O)CCC(=O)O)OC(CCCCC)C1 (stereo not drawn) [DOXA-1, Doxadiazine-1]	–	5.48	7.17	7.91	7.76	7.74	7.20	8.09	8.51	7.49	no cytotoxicity
